“And” between values parts separate entries of the source, which are not always exact repeats. Identical values can stand only once.
How the values were obtained:
Rattus norvegicus [1] = tested on: Rattus norvegicus
Rattus norvegicus [2] = conditions: for LD50 / LC50: acute
[3] = reproduction developmental, duration: 103 weeks, oral, drinking water, generation: F0
[4] = reproduction developmental, duration: 104 weeks, oral, drinking water
[5] = reproduction developmental, duration: 59 days, oral, drinking water
[6] = subchronic, duration: 90 days, oral, diet, Sprague-Dawley

Work on `[Cd]` [Cadmium] yielded an LOAEL (Rattus norvegicus [1]; short-term, duration: 2 weeks, inhalation, M/F, Fischer 344, respiratory) of 0.088 mg/m3.

For `CCN(CC)C(=O)c1cccc(C)c1` [DEET], the NOAEL (Rattus norvegicus [1]; developmental, duration: 364 days, oral, diet, M/F, Sprague-Dawley, developmental) was 100 mg/kg-day.

`O=C(Cl)C(Cl)Cl` [Dichloroacetyl chloride] showed an LD50 (Rattus norvegicus [2]; oral) of 2460 mg/kg and an NOAEL (Rattus norvegicus [2]; subchronic, duration: 30 days, inhalation, Sprague-Dawley) of 6.03 mg/m3.

In the case of `COC` [Dimethyl ether], the LC50 (Rattus norvegicus [2]; inhalation, Sprague-Dawley) is reported as 309000 mg/m3.

For `CC(COCC(C)OC(=O)c1ccccc1)OC(=O)c1ccccc1` (stereo not drawn) [Dipropylene glycol, dibenzoate], the LD50 (Rattus norvegicus [2]; dermal, Sprague-Dawley) was over 2000 mg/kg, the LD50 (Rattus norvegicus [2]; oral, Sprague-Dawley) was 5070 mg/kg and 3300 mg/kg and 3910 mg/kg and the NOAEL (Rattus norvegicus [2]; developmental, duration: 13 days, oral, gavage, Sprague-Dawley) was 500 mg/kg-day and 250 mg/kg-day. The NOAEL (Rattus norvegicus [2]; reproduction developmental, duration: 38 weeks, oral, diet, Sprague-Dawley, generation: F0) was 10000 ppm, the NOAEL (Rattus norvegicus [2]; reproduction developmental, duration: 38 weeks, oral, diet, Sprague-Dawley, generation: F1) was 10000 ppm and the NOAEL (Rattus norvegicus [2]; reproduction developmental, duration: 13 days, oral, gavage, F, Sprague-Dawley) was 1000 mg/kg-day. For the same compound, the NOAEL (Rattus norvegicus [2]; subchronic, duration: 13 weeks, oral, diet) was 1000 mg/kg-day.

In the case of `O=CCCCC=O` [Glutaraldehyde], the NOAEL (Rattus norvegicus [1]; acute, duration: 1 days, inhalation, M/F, Fischer 344, respiratory) is reported as 0.512 mg/m3 and the NOAEL (Rattus norvegicus [1]; chronic, duration: 2 years, oral, drinking water, M/F, Fischer 344, gastrointestinal) is reported as 4 mg/kg-day.

In the case of `C1CCCNCC1` [Hexamethyleneimine], the LD50 (Rattus norvegicus [2]; oral, gavage, Sprague-Dawley) is reported as 9.6 mg/kg and ≥ 8 mg/kg and ≤ 11.4 mg/kg.

`CS(=O)(=O)O` [Methanesulfonic acid] was tested, and the LD50 (Rattus norvegicus [2]; oral) was ≥ 200 mg/kg and ≤ 400 mg/kg.

Work on `COC(=O)CC(C)=O` [Methyl acetoacetate] yielded an NOAEL (Rattus norvegicus [2]; developmental, oral, gavage, Crj:CD(SD)) of over 1000 mg/kg-day, an NOAEL (Rattus norvegicus [2]; short-term, duration: 4 weeks, oral, gavage, F, Sprague-Dawley) of 1000 mg/kg-day and an NOAEL (Rattus norvegicus [2]; short-term, duration: 4 weeks, oral, gavage, M, Sprague-Dawley) of 1000 mg/kg-day.

`O=c1[n-]c(=O)[nH]c(=O)[nH]1.[Na+]` [Monosodium cyanurate] showed an NOAEL (Rattus norvegicus [2]; developmental, duration: 103 weeks, oral, drinking water) of 5380 ppm, an NOAEL (Rattus norvegicus [2]; developmental, duration: 10 days, oral, gavage, COBSCD (Charles River)) of over 5000 mg/kg-day and an NOAEL (Rattus norvegicus [2]; reproduction developmental, duration: 13 weeks, oral, drinking water) of at least 5380 ppm. For the same compound, the LOAEL (Rattus norvegicus [2]; [3]) was 5380 ppm, the NOAEL (Rattus norvegicus [2]; [3]) was 1200 ppm and the NOAEL (Rattus norvegicus [2]; reproduction developmental, duration: 103 weeks, oral, drinking water, generation: F1) was 5380 ppm. For the same compound, the NOAEL (Rattus norvegicus [2]; reproduction developmental, duration: 103 weeks, oral, drinking water, generation: F2) was 5380 ppm, the LOAEL (Rattus norvegicus [2]; [4]) was 5380 ppm and the NOAEL (Rattus norvegicus [2]; [4]) was 2400 ppm. For the same compound, the NOAEL (Rattus norvegicus [2]; reproduction developmental, duration: 10 days, oral, gavage, F, COBSCD (Charles River)) was over 5000 mg/kg-day, the LOAEL (Rattus norvegicus [2]; [5]) was at least 2000 ppm and the NOAEL (Rattus norvegicus [2]; [5]) was ≥ 400 ppm and ≤ 1200 ppm.

`CCC(C)Nc1ccc(NC(C)CC)cc1` (stereo not drawn) [N,N'-Bis(1-methylpropyl)-1,4-benzenediamine] was tested, and the LC50 (Rattus norvegicus [2]; inhalation, Sprague-Dawley) was over 0.2 mg/L, the LOAEL (Rattus norvegicus [2]; short-term, duration: 28 days, oral, gavage, Sprague-Dawley) was 10 mg/kg-day and the LOAEL (Rattus norvegicus [2]; [6]) was 500 mg/kg-day. It also gave an NOAEL (Rattus norvegicus [2]; [6]) of 100 mg/kg-day.

For `COc1ccccc1NC(=O)CC(C)=O` [N-(2-Methoxyphenyl)-3-oxobutanamide], the LD50 (Rattus norvegicus [2]; oral, gavage, Crj:CD) was 1640 mg/kg.

`CCCCNS(=O)(=O)c1ccccc1` [N-Butylbenzenesulfonamide] gave an LC50 (Rattus norvegicus [2]; Inhalation, Wistar) of over 4070 mg/m3.

`O=C([O-])CCCCCCCC(=O)[O-].[Li+].[Li+]` [Nonanedioic acid, dilithium salt] was tested, and the NOAEL (Rattus norvegicus [2]; subchronic, duration: 90 days, oral, gavage, Sprague-Dawley) was 1000 mg/kg-day.

Compound `O.O.O=c1nc([O-])n(Cl)c(=O)n1Cl.[Na+]` [Sodium dichloroisocyanurate dihydrate] has an LD50 (Rattus norvegicus [2]; dermal, Sprague-Dawley) of over 5000 mg/kg and an LD50 (Rattus norvegicus [2]; oral, gavage, Sprague-Dawley) of 1820 mg/kg.

For `NNC(=S)NN` [Thiocarbazide], the LD50 (Rattus norvegicus [2]; dermal, Wistar) was over 500 mg/kg and the LC50 (Rattus norvegicus [2]; inhalation, Wistar) was 50 mg/m3 and > 75.5 mg/m3.

`[Cl][Ti]([Cl])([Cl])[Cl]` [Titanium tetrachloride] gave an LOAEL (Rattus norvegicus [1]; chronic, duration: 104 weeks, inhalation, M/F, Crl:CD(SD), respiratory) of 0.1 mg/m3 and an LOAEL (Rattus norvegicus [1]; short-term, duration: 4 weeks, inhalation, M, Crl:CD(SD), respiratory) of 5 mg/m3.

`c1ccc(B(c2ccccc2)c2ccccc2)cc1` [Triphenylborane] showed an LD50 (Rattus norvegicus [2]; oral, gavage, Sprague-Dawley) of 196 mg/kg.

`ClCOCCl` [bis(Chloromethyl) ether] was tested, and the NOAEL (Rattus norvegicus [1]; chronic, duration: 6 months, inhalation, M, Sprague-Dawley, respiratory) was 0.47 mg/m3.

In the case of `c1ccc(-c2ccccc2-c2ccccc2)cc1` [o-Terphenyl], the “LOAEL (% diet)” value (Rattus norvegicus [2]; short-term, duration: 14 days, oral, diet, Wistar) is reported as 0.2 and the NOAEL (Rattus norvegicus [2]; subchronic, duration: 30 days, oral, diet, Sprague-Dawley) is reported as 100 mg/kg-day.
